This note sets out measurements from ChEMBL document CHEMBL1201862, “PubChem BioAssay data set” (2004).

By AC50 is commonly meant the midpoint of the concentration-response curve, whichever way the signal moves. In general, EC50 refers to the concentration that produces a half-maximal response. For orientation: IC50 means the concentration that inhibits the measured activity by half.

Active and inactive are the calls of the source. Bounds are passed on as bounds.

Experiment [1] can be described thus: Luminescence Cell-Based Dose Retest to Confirm Inhibitors of Cancer Stem Cells. [Related pubchem assays (depositor defined):AID2717, AID2721]. The experiment is classed as functional. As to conditions: Homo sapiens.
In experiment [2] the target is Heat shock protein HSP 90-alpha (Homo sapiens, UniProt P07900). The experiment is classed as functional, organism-based.
In experiment [3] the target is T1, Histone-lysine N-methyltransferase NSD2 (Homo sapiens, UniProt O96028).
T1 sequence (O96028 whole entry): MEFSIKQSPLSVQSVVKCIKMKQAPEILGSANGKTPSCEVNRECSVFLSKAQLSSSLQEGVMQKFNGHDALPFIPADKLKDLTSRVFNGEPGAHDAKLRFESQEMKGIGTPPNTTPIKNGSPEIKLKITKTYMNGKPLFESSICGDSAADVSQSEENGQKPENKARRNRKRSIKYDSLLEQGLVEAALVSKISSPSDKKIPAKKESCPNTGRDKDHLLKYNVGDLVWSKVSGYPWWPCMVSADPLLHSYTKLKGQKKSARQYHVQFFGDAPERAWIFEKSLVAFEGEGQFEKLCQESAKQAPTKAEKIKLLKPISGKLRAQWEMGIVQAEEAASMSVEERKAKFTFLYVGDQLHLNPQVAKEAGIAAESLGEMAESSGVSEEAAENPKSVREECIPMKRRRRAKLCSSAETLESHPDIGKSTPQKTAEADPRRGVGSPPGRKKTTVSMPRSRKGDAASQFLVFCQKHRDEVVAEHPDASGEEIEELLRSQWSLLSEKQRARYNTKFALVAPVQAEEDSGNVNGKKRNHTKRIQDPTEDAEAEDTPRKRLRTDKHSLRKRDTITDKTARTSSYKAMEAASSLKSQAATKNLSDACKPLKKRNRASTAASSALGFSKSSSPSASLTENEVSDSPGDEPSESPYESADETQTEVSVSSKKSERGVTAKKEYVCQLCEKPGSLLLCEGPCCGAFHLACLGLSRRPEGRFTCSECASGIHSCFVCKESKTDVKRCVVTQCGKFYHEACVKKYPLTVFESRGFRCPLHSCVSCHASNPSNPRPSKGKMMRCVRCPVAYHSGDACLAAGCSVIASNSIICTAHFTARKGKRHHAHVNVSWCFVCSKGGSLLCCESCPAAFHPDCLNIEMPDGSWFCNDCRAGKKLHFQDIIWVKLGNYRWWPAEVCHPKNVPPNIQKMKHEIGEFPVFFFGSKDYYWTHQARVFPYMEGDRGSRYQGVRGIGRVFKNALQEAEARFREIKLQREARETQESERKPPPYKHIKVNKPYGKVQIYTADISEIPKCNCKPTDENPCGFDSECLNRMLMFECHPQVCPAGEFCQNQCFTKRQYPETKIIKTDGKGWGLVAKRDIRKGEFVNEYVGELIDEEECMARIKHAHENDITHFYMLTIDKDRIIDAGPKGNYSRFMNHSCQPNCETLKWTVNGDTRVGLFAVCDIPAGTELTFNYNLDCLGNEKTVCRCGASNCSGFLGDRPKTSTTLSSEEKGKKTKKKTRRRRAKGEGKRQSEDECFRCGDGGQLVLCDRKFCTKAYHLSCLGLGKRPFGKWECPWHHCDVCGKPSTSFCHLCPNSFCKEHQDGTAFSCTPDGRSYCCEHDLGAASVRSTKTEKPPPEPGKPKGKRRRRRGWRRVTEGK
The experiment is classed as biochemical.

A further experiment deals with T2, Streptokinase A (Streptococcus pyogenes serotype M1, UniProt P10520).
T2 sequence (P10520 whole entry): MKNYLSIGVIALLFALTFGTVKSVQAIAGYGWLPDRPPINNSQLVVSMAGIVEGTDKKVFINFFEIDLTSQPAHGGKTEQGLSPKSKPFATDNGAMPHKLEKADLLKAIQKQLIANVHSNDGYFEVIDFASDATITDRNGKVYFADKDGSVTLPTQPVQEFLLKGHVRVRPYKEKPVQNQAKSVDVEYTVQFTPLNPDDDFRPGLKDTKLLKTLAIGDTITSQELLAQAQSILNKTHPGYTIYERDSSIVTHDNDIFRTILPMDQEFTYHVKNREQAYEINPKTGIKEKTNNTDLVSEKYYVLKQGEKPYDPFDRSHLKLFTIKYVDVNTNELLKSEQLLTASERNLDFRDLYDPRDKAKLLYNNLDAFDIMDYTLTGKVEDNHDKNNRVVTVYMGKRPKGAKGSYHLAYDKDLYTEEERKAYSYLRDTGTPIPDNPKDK
In words: viability-normalized secreted streptokinase activity reduction – plasminogen activation absorbance, OD405, dose response (AID 1914).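 Further: secreted streptokinase activity via plasminogen activation per viability signal from cell pellet.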 It is filed as functional, Streptococcus pyogenes M1 GAS.

A short description of experiment [4]: microbe, parasite or virus in culture. It is filed as functional. As to conditions: Mycobacterium tuberculosis.
The test system of experiment [5] is Streptococcus sp. 'group A'. In words: Streptococcus pyogenes SK(-)GAS viability under kanamycin – luminescence, BacTiterGlo, confirmation, counter-screen for streptokinase expression inhibitor project, dose response (AID 1900). It is filed as functional, organism-based. (Counterscreens check selectivity or assay interference.)
In a further experiment the test system is Streptococcus. In words: GAS UMAA2166 growth inhibition – luminescence, BacTiterGlo, counter-screen for streptokinase expression inhibitor project, dose response (AID 1915).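 Further: potency for reduction of bacterial viability or growth.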 It is filed as functional, organism-based.
Experiment [6] can be described thus: Trypanosoma cruzi growth suppression in host cells – NIH3T3 host cells, beta-gal luminescence, confirmation (AID 2044).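 Further: intracellular parasites grown in NIH/3T3 mouse fibroblasts as host cells; luminescent beta-galactosidase reporter signal from transgenic T. cruzi replicating inside host cells; inhibitors lower the luminescence signal.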 It is filed as functional, cell-based.
The nature of experiment [7]: NIH3T3 cell viability loss – ATP luminescence, mouse fibroblasts, counter-screen, dose response (AID 2010).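 Further: cells exposed to compound for about 90 hours before reading.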 The experiment is classed as functional, cell-based.
Experiment [8] in a line: viability of uninfected HEp-2 cells – cell-based, HTS, cytotoxicity control for RSV inhibitor project, dose response (AID 2410). Particulars: human respiratory syncytial virus. The experiment is classed as functional.
The target in another experiment is T3, Aminopeptidase N (Plasmodium falciparum FcB1/Columbia, UniProt O96935).
T3 sequence (O96935 whole entry): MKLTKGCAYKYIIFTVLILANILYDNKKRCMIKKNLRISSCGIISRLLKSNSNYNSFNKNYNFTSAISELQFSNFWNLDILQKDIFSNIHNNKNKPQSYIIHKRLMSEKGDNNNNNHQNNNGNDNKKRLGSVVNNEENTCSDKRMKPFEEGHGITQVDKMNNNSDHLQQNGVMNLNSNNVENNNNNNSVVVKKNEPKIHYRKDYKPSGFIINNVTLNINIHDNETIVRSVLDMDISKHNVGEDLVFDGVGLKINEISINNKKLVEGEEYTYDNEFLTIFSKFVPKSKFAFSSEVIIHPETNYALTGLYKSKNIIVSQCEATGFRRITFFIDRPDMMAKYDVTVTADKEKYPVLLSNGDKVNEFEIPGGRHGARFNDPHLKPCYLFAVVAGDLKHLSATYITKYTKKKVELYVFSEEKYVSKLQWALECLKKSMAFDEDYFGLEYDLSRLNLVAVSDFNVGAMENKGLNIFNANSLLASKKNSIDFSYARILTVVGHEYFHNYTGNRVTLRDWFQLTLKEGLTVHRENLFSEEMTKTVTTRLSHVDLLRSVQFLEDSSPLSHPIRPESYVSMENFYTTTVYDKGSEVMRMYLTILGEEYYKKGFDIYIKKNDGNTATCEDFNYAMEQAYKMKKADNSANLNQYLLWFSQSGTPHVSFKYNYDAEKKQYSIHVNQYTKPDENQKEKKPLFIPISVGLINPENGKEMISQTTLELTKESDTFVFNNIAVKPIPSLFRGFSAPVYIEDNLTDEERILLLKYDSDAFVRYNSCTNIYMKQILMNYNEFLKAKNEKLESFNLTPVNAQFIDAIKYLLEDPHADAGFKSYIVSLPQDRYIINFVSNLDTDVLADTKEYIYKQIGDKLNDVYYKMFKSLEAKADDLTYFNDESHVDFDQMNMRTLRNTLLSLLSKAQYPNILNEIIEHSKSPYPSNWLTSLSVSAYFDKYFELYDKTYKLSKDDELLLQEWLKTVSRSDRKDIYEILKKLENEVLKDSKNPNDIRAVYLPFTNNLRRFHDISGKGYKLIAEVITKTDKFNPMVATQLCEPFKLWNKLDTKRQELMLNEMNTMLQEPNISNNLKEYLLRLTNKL
In words: malaria alanyl aminopeptidase activity blockers – biochemical, fluorogenic H-Leu-NHMec substrate, 1536-well (AID 1445). Details: species or system Plasmodium falciparum 3D7, 3D7.

The nature of experiment [9]: HIV-1 Vif–A3G interaction blockers – biochemical, TR-FRET, GST-Vif 1-94, biotin-A3G peptide, dose response retest, primary screen (AID 1117319).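 Further: TR-FRET signal of purified GST-Vif binding a biotinylated A3G peptide; inhibitors lower the FRET signal by blocking Vif and A3G binding.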 It is filed as functional. Background: Time-resolved FRET reads energy transfer from a long-lived donor to a nearby acceptor.
In experiment [10] the target is T4, Rac GTPase-activating protein 1 (Homo sapiens, UniProt Q9H0H5).
T4 sequence (Q9H0H5 whole entry): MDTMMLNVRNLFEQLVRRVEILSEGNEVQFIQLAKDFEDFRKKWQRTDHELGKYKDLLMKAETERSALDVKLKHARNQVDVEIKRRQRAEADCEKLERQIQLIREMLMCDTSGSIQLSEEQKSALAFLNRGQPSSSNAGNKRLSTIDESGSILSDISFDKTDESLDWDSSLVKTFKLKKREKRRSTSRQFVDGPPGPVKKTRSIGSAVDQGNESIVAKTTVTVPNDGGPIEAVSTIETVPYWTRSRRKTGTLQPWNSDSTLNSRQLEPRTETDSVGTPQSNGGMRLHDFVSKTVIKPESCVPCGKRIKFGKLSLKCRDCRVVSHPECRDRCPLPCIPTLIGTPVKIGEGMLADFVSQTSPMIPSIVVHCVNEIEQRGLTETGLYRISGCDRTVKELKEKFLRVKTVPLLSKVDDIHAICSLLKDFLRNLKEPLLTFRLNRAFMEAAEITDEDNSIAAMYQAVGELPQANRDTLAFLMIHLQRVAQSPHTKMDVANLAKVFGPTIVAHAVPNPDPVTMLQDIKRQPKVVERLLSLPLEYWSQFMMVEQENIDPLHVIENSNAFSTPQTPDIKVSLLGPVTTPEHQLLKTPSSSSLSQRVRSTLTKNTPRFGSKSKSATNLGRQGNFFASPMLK
The experiment in a line: blockers of MgcRacGAP-driven Rac1 GTP hydrolysis – biochemical, ADP Hunter fluorescence, primary and confirmatory, confirmation (AID 624330). It is filed as functional.

The next experiment concerns the target Large T antigen (Simian virus 40, UniProt P03070). It is filed as functional, Betapolyomavirus macacae.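 Further: Confirmatory-stage PubChem screen for compounds that inhibit SV40 T antigen.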
The target of experiment [11] is T5, Heat shock factor protein 1 (Mus musculus, UniProt P38532).
T5 sequence (P38532 whole entry): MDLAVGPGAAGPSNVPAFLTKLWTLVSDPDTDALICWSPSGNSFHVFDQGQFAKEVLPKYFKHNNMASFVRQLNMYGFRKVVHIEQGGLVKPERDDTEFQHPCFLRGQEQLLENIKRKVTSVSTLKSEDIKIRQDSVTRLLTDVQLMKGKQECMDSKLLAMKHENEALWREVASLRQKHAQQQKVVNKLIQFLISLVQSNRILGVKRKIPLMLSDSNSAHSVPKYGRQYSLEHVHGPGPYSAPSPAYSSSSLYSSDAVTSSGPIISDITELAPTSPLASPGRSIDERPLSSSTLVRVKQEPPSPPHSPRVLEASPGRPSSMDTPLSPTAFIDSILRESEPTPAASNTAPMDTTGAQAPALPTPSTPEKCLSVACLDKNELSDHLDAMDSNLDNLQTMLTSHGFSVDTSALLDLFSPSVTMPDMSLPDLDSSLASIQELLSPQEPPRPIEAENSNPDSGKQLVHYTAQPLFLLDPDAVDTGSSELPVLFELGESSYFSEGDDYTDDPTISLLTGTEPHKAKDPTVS
In words: decrease of HSF1-responsive luciferase luminescence – cell-based, NIH3T3, dose retest, confirmation (AID 2382).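 Further: NIH3T3 fibroblasts with HSF1-driven luciferase reporter stressed by proteasome inhibitor MG132; luminescence from HSF1-driven luciferase expression after 8 hours of MG132 stress.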 The experiment is classed as functional.

Chain of Large T antigen (P03070 whole entry): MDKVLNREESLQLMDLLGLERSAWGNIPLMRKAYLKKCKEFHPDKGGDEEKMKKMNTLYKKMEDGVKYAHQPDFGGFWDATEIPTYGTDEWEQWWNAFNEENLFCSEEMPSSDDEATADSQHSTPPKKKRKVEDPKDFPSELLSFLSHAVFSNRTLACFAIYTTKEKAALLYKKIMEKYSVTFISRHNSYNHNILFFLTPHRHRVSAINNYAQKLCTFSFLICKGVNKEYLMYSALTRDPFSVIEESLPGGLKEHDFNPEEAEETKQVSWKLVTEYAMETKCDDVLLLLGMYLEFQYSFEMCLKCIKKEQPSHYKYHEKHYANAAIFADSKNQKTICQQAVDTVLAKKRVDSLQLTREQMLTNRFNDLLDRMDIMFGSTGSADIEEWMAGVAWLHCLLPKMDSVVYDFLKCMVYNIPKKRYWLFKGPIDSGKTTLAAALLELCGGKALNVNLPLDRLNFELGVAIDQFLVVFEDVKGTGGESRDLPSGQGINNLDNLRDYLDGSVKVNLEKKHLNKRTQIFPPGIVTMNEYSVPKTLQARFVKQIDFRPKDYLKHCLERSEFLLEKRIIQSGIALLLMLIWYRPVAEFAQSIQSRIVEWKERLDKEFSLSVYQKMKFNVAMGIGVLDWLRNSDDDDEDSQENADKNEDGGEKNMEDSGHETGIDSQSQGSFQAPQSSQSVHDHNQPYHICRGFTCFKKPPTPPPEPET

Take `Cc1cccc(C)c1N=Nc1c(C)cc(O)cc1C`: the concentration at half-maximal activity (AC50) is 5.46 µM (active) in experiment [1], 8.38 µM (active) in [2] and > 20 µM (inactive) in experiment [3]. As for `CC1(C)Cc2c(cnn2-c2ccccc2)-c2c1c1ccccc1n2CC(O)CCl` (configuration not stated), the EC50 on Streptokinase A is 13.7 µM (active); in [5], 8.41 µM (active); in the experiment on Streptococcus it was > 150 µM (not active). The CC50 in experiment [4] is > 40 µM (active). `CCCCCOC(=O)c1c(N)n(CCOC)c2nc3ccccc3nc12`: in [3], the AC50 is 15.7 µM (active). For the molecule `CCc1ccc2nc(N(CCCN(C)C)C(=O)c3ccc(S(=O)(=O)N4CCCc5ccccc54)cc3)sc2c1`, the EC50 in experiment [6] is 0.187 µM (active); in experiment [7] it was 9.15 µM (active). Further, the AC50 in experiment [1] is 6.44 µM (active). Further, the CC50 in experiment [4] is 13.8 µM (active); in experiment [8] it was 12.7 µM (active).

With `Cc1cccc(C(=O)NC2CCN(C(=S)NCc3ccco3)CC2)c1`, the IC50 on Aminopeptidase N is 113 µM (active).

As to `O=C(NC1CCN(C(=S)NCc2ccco2)CC1)c1cccc(F)c1`, the IC50 on Aminopeptidase N is 79.9 µM (active). Regarding `CCCc1cc(O)nc(SCC(=O)Nc2cc3c(cc2C(C)=O)OCO3)n1`, the IC50 in [9] was > 100 µM (active).

As for `Cc1ccccc1N(CC(=O)NC(C)(C)C)C(=O)C[S+]([O-])CC(=O)Nc1ccc2c(c1)OCO2` (configuration not stated), the IC50 on Aminopeptidase N was 79.3 µM (active).

As to `CC1(c2ccc3noc(-c4ccccc4)c3c2)OCCO1`, the IC50 in experiment [9] is > 100 µM (active). Regarding `Cc1ccc(Cl)cc1N1CCN(Cc2nc(O)c3sccc3n2)CC1`, the CC50 in experiment [4] is > 40 µM (active). Turning to `CCNC(=O)CC1C(=O)N(c2ccc(C)cc2)C(=O)N1CCc1ccc(OC)c(OC)c1` (configuration not stated), the IC50 in [9] is > 100 µM (active).

For `COc1cc2c(cc1N)-c1ccc(N)cc1C2`, the IC50 in [9] is > 100 µM (active); in experiment [10], 10.7 µM (active). As for `O=C(Oc1ccccc1)c1cc(O)c(O)c(O)c1`, in [3], the AC50 is 4.01 µM (active). As for `COc1cc(/C=N/N=C2/C(=O)Nc3ccccc32)cc(OC)c1O`, the IC50 was 12.4 µM (active) on Large T antigen and 50.9 µM (active) in experiment [10]. In addition, in experiment [11], the EC50 was > 195 µM (not active). Besides, the AC50 in [3] was > 20 µM (inactive).
